From the Kinase Knowledgebase extract (Sharma et al. 2016) come the findings set out here.

MAPK14 (human), sequence (Q16539 whole entry, looked up): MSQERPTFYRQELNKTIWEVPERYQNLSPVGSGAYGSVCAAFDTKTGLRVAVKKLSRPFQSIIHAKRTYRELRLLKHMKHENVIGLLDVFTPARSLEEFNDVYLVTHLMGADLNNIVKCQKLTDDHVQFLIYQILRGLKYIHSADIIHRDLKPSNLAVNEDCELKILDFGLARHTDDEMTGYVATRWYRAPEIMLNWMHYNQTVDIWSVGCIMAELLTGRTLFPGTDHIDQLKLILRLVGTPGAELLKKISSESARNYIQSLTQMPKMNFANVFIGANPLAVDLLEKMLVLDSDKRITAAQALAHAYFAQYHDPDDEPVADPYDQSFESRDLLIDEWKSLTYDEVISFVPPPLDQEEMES

The assay has as its target MAPK14 (human) (UniProt Q16539). Description: Inhibition of MAPK14 Kinase Activity. Conditions: Monocyte.
As for `Cc1cc(OCc2ccc(F)cc2F)c(Cl)c(=O)n1Cc1ccc2c(c1)CN(C(=O)C(C)(C)O)C2`, the IC50 was below 1000 nM.
As for `Cc1cc(OCc2ccc(F)cc2F)c(Br)c(=O)n1-c1ccc(C(=O)N(C)C)cc1C(F)(F)F`, the IC50 was in the range of 1000 to 25000 nM.
`CNC(=O)c1ccc(C(C)n2c(C)cc(OCc3ccc(F)cc3F)c(Br)c2=O)cc1` (stereo not given): the IC50 was 1000 to 25000 nM.
`Cc1cc(OCc2ccc(F)cc2F)c(Br)c(=O)n1Cc1cnc(CNC(=O)CN)nc1` returned an IC50 below 1000 nM.
For the compound `Cc1cc(OCc2ccc(F)cc2F)c(Br)c(=O)n1Cc1ccc(C(=O)NCCO)o1`, the IC50 is 1000 to 25000 nM.
In turn, `Cc1ccc(C(N)=O)cc1-n1c(C)cc(OCc2ccc(F)cc2F)c(Br)c1=O` gave an IC50 below 1000 nM.
`Cc1ccc(C(N)=O)cc1-n1c(C)cc(OCc2ccc(F)cc2CNC(=O)NC2CC2)c(Cl)c1=O` showed an IC50 below 1000 nM.
Regarding `CNCC(=O)NCc1ccc(Cn2c(C)cc(OCc3ccc(F)cc3F)c(Br)c2=O)cc1`, the IC50 is below 1000 nM.
Consider `Cc1cc(OCc2ccc(F)cc2C(N)=O)c(Br)c(=O)n1-c1c(F)cccc1F`, for which the IC50 lay in the range of 25000 to 100000 nM.
With `Cc1cc(OCc2ccc(F)cc2F)c(Br)c(=O)n1Cc1ccc(C(=O)N2CCOCC2)o1`, the 50% inhibitory concentration (IC50) was below 1000 nM.
For `Cc1cc(OCc2ccc(F)cc2F)c(Br)c(=O)n1-c1c(F)cc(/C=C/CO)cc1F`, the IC50 was below 1000 nM.
Under `Cc1cc(OCc2ccc(F)cc2F)c(Br)c(=O)n1-c1c(F)cc(C(O)COC(N)=O)cc1F` (stereo not given) stands below 1000 nM; under `Cc1cc(OCc2ccc(F)cc2F)c(Br)c(=O)n1Cc1cnc(N(C)C)nc1`, below 1000 nM; under `Cc1cc(OCc2ccc(F)cc2F)c(Br)c(=O)n1-c1ccc(CNC(=O)C(C)(C)O)cc1`, below 1000 nM.
With `Cc1cc(OCc2ccc(F)cc2F)c(Br)c(=O)n1Cc1cc[nH]n1` the figure was below 1000 nM.
